Experimental data from US20240336615A1, “CYCLOPROPYL-(HETERO)ARYL-SUBSTITUTED ETHYL-SULFOXIME-PYRIDINE DERIVATIVES” (Boehringer Ingelheim Vetmedica GmbH, priority 2023, published 2024).

How the values were obtained:
Plutella xylostella = test: Insecticidal test on Plutella xylostella (Example 15); assay type: in vivo; details: 144 h, 500 ppm, Chinese cabbage seedling dip, 6 days after dip treatment, read-out: activity level (corrected mortality rate)
Procedure: The compounds of formula (I), (Ia) and/or (Ib) of the present invention or salts thereof are separately dispersed in water and diluted to 500 ppm and 50 ppm. Ten adults of Plutella xylostella are released onto Chinese cabbage seedlings and allowed to lay eggs thereon. 2 days after the release of the adults, the seedling is dipped in the dispersion for about 30 seconds. After air dried, the seedling is kept in a room at 25° C. 6 days after the dip treatment, the numbers of the dead and alive insects are counted. The corrected mortality rate is calculated according to the following formula and the insecticidal activity is evaluated according to the following criteria.

adult C. felis fleas [1] = test: Ingestion activity against adult Ctenocephalides felis, membrane feeding, alternative method (Examples 7 and 13); details: Ctenocephalides felis
Procedure: Selected compounds of formula (I), (Ia) and (Ib) and compound “125” of WO 2021/033141 dissolved in 100% DMSO are diluted in bovine blood with sodium heparin anti-coagulant. The resulting formulation is offered via an artificial membrane feeding system to approximately 15 adult C. felis fleas previously dispensed into 24-well plates. The plates are then incubated in a double-chambered device. Visual evaluation for mortality is performed at 48 hours post-treatment. Compound efficacy at a given dose is expressed as percentage mortality and determined by normalization to positive and negative controls. A dose response series is implemented to determine EC50 values.
Compounds of formulae (I), (Ia) and/or (Ib) dissolved in 100% DMSO are diluted in bovine blood with sodium heparin anti-coagulant. The resulting formulation is offered via an artificial membrane feeding system to approximately 15 adult C. felis fleas previously dispensed into 24-well plates. The plates are then incubated in a double-chambered device. Visual evaluation for mortality is performed at 48 hours post-treatment. Compound efficacy at a given dose is expressed as percentage mortality and determined by normalization to positive and negative controls. A dose response series is implemented to determine EC50 values.

A. aegypti L1 larvae = test: Activity against larvae of Aedes aegypti (Example 3); details: 48 h at 27° C., read-out: EC50 (percentage of mortality, larvae)
Procedure: Eight A. aegypti L1 larvae in a total volume of 64 μL water are added to 384-well microplates containing compounds of formulae (I), (Ia) and/or (Ib) formulated in 100% DMSO. The plates are incubated for 48 h at 27° C. Individual well images are acquired and analyzed using a pipeline to quantitatively assess the amount of larvae biomass accumulating at the bottom of the well. The efficacy of a compound at a given dose is expressed as “percentage of mortality” and determined by comparison to average biomass descriptors of positive and negative control wells containing 1.0 μM Fipronil or DMSO only, respectively. Dose response assay are conducted to determine an EC50 value.

Laodelphax striatellus = test: Insecticidal test on Laodelphax striatellus (Example 16); assay type: in vivo; details: 192 h, 500 ppm, rice seedling dip, 3rd-instar nymphs, 8 days after inoculation, read-out: activity level (corrected mortality rate)
Procedure: The compounds of formula (I), (Ia) and/or (Ib) of the present invention or salts thereof are separately dispersed in water and diluted to 500 ppm and 50 ppm. Rice plant seedlings are dipped in the dispersion for about 30 seconds. After air dried, the seedlings are put into a separate glass test tube and inoculated with ten 3rd-instar nymphs of Laodelphax striatellus and then the glass test tube is kept in a room at 25° C. 8 days after the inoculation, the numbers of the dead and alive insects are counted. The corrected mortality rate is calculated according to the following formula and the insecticidal activity is evaluated according to the following criteria.

[2] = test system: adult Ctenocephalides felis fleas; test: Contact activity against adult Ctenocephalides felis (Example 4); details: adult C. felis, coated pipe cleaner in vial, 72 hours post-treatment, read-out: EC50 (contact activity, percentage mortality)
Procedure: Compounds of formulae (I), (Ia) and/or (Ib) dissolved in 100% DMSO are diluted in acetone to a desired concentration. The resulting formulation is used to coat the fibers of a 0.5-inch-long piece of pipe cleaner placed in a glass scintillation vial. The vial is capped with a rubber gasket and filter paper insert. After the acetone has evaporated, ten adult Ctenocephalides felis fleas are added to each vial. The vials are then incubated at 22° C., 80% relative humidity, and 12 hours of light/12 hours of dark until a visual evaluation for mortality is performed at 72 hours post-treatment. Compound efficacy at a given dose is expressed as percentage mortality and adjusted to remove background mortality observed in control vials containing DMSO only. A dose response series of treated vials is implemented to determine EC50 values.

adult C. felis fleas [3] = test: Ingestion activity against adult Ctenocephalides felis, membrane feeding, motility (Example 6); details: 48 h, bovine blood via artificial membrane, 48h post treatment, read-out: EC50 (ingestion activity, % motility reduction)
Procedure: Compounds of formulae (I), (Ia) and/or (Ib) dissolved in 100% DMSO are added to bovine blood and offered via an artificial membrane feeding system to adult C. felis fleas. The motility of fleas is then visually inspected 48h post treatment. Efficacy is expressed in % motility reduction compared to controls containing blood treated with DMSO only. A dose response series is implemented to determine EC50 values.

[4] = test system: adult R. sanguineus ticks; test: Contact activity against adult Rhipicephalus sanguineus (Example 5); details: coated vials, 48 hours post-treatment, read-out: EC50 (contact activity, percentage mortality)
Procedure: Compounds of formulae (I), (Ia) and/or (Ib) formulated in 100% DMSO are diluted in a solution containing acetone and Triton X-100 (0.02%). The resulting formulation is used to coat the inner walls of glass scintillation vials and the filter paper covering the cap of the vial. Once dried, ten adult R. sanguineus ticks are added to the vials. The vials are incubated at 24° C., 95% relative humidity, and 12 hours of light/12 hours of dark until evaluation. Ticks are visually evaluated for mortality at 48 hours post-treatment. Compound efficacy at a given dose is expressed as percentage mortality. A dose response series is implemented to determine EC50 values.

Spodoptera litura = test: Insecticidal test on Spodoptera litura (Example 14); assay type: in vivo; details: foliar, 192 h, 500 ppm, cabbage leaf dip, 2nd-instar larvae, 8 days after inoculation, read-out: activity level (corrected mortality rate)
Procedure: The compounds of formula (I), (Ia) and/or (Ib) of the present invention or salts thereof are separately dispersed in water and diluted to 500 ppm and 50 ppm. Cabbage leaves are dipped in the dispersion for about 30 seconds. After air dried, the leaves are placed in a plastic Petri dish with a diameter of 9 cm and inoculated with ten 2nd-instar larvae of Spodoptera litura, after which the dish is closed and then allowed to stand in a room at 25° C. 8 days after the inoculation, the numbers of the dead and alive insects are counted. The corrected mortality rate is calculated according to the following formula and the insecticidal activity is evaluated according to the following criteria.
[formula] [formula] • A: the corrected mortality rate is 100% • B: the corrected mortality rate is 90 to 99% • C: the corrected mortality rate is 80 to 89% • D: the corrected mortality rate is 50 to 79%

Myzus persicae = test: Insecticidal test on Myzus persicae (Example 17); assay type: in vivo; details: 144 h, 500 ppm, foliar application on Chinese cabbage, 6 days after application, read-out: control efficacy level (control rate)
Text: The compounds of formula (I), (Ia) and/or (Ib) of the present invention or salts thereof are separately dispersed in water and diluted to 500 ppm and 50 ppm. Chinese cabbage plants are planted in plastic pots (diameter: 8 cm, height: 8 cm). Aphids (Myzus persicae) are propagated on the plants and then the number of surviving aphids is counted. The dispersion is applied to the foliage of the potted plants. After the plants are air dried, these are kept in a greenhouse. 6 days after the application, the number of the alive insects is counted on the plants. The control rate is calculated according to the following formula and the control efficacy is evaluated according to the following criteria. [formula] • Ta: the number of alive insects before the foliar application in a treated plot • T: the number of alive insects after the foliar application in a treated plot • Ca: the number of alive insects before the foliar application in an untreated plot • C: the number of alive insects after the foliar application in an untreated plot • A: the control rate is 100% • B: the control rate is 90 to 99% • C: the control rate is 80 to 89% • D: the control rate is 50 to 79%

[5] = adult C. felis, bovine blood with sodium heparin, membrane feeding, 48 hours post-treatment, read-out: EC50 (ingestion activity, percentage mortality, alternative method)
[6] = alternative method according to Example 7, mortality at 48 hours post-treatment, read-out: C. felis membrane feeding (ingestion/blood feeding) activity EC50

CCS(=N)(=O)c1cc(-c2ccc(C3CC3)cc2)cnc1-c1nc2cc(C(F)(F)C(F)(F)F)cnc2n1C (centres unmarked) [Compound 11]
mortality at 500 ppm (Plutella xylostella): 100% | EC50 (adult C. felis fleas [1]; [5]): < 1000 nM | EC50 (adult C. felis fleas [1]; [6]): 816 nM | EC50 (A. aegypti L1 larvae): < 40 nM | mortality at 500 ppm (Laodelphax striatellus): 100% | EC50 [2]: < 10000 nM | EC50 (adult C. felis fleas [3]): < 1000 nM | EC50 [4]: 10000 to 100000 nM | mortality at 500 ppm (Spodoptera litura): 100% | pest or weed control at 500 ppm (Myzus persicae): 100%

CCS(=N)(=O)c1cc(-c2ccc(C3(F)CC3)cc2)cnc1-c1nc2cc(C(F)(F)C(F)(F)F)nnc2n1C (centres unmarked) [Compound 14]
mortality at 500 ppm (Plutella xylostella): 100% | EC50 (adult C. felis fleas [1]; [5]): < 1000 nM | EC50 (adult C. felis fleas [1]; [6]): 195 nM | EC50 (A. aegypti L1 larvae): < 40 nM | mortality at 500 ppm (Laodelphax striatellus): 100% | EC50 [2]: < 10000 nM | EC50 (adult C. felis fleas [3]): < 1000 nM | EC50 [4]: 10000 to 100000 nM | mortality at 500 ppm (Spodoptera litura): 100% | pest or weed control at 500 ppm (Myzus persicae): 100%
